This note sets out measurements from ChEMBL document CHEMBL1909046, “DrugMatrix in vitro pharmacology data”.

Test [1] has as its target T1, Alpha-1B adrenergic receptor (Rattus norvegicus, UniProt P15823).
T1 sequence (P15823 whole entry): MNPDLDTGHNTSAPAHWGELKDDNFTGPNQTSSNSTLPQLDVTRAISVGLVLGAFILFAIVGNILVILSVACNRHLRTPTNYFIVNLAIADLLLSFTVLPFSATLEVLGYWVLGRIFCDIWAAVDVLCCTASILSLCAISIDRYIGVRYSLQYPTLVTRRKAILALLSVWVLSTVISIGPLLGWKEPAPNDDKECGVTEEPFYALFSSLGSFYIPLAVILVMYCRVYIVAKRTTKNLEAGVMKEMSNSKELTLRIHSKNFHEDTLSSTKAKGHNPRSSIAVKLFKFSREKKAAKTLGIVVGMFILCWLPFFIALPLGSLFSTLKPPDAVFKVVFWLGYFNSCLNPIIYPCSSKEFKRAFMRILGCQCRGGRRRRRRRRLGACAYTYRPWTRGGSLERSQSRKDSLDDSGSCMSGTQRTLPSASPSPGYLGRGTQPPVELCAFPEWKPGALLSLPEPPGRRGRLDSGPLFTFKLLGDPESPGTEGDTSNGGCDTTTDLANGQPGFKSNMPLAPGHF
Briefly: DRUGMATRIX: Alpha-1B adrenergic receptor radioligand binding (ligand: prazosin). The format is cell membranes, Wistar, Liver, Membrane. The conditions noted are these: Not Active = under 50% inhibition at 10 µM.

In test [2] the target is cGMP-specific 3',5'-cyclic phosphodiesterase (Homo sapiens, UniProt O76074). In words: DRUGMATRIX: Phosphodiesterase PDE5 enzyme inhibition (substrate: [3H]cGMP + cGMP). The format is tissue-based, Platelet. The conditions noted are these: platelet; Not Active = under 50% inhibition at 10 µM.
The target in test [3] is Delta-type opioid receptor (Homo sapiens, UniProt P41143). The format is cell membranes, HEK293, Membrane. The note with it: hek293. Also: in other assays of this panel Not Active means under 50% inhibition at 10 µM.
Chain of Delta-type opioid receptor (P41143 whole entry): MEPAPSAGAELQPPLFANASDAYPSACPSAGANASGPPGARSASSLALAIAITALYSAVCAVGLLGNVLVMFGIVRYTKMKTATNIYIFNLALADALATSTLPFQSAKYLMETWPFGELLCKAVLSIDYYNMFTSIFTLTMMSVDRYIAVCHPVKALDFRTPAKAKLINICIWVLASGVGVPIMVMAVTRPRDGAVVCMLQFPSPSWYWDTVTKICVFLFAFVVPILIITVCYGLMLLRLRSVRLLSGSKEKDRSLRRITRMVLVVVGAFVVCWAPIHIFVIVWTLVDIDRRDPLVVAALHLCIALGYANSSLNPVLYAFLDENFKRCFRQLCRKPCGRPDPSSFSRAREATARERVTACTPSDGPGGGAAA
Test [4] deals with Vascular endothelial growth factor receptor 1 (Homo sapiens, UniProt P17948). The format is cell-based. The conditions noted are these: huvec.
Chain of Vascular endothelial growth factor receptor 1 (P17948 whole entry): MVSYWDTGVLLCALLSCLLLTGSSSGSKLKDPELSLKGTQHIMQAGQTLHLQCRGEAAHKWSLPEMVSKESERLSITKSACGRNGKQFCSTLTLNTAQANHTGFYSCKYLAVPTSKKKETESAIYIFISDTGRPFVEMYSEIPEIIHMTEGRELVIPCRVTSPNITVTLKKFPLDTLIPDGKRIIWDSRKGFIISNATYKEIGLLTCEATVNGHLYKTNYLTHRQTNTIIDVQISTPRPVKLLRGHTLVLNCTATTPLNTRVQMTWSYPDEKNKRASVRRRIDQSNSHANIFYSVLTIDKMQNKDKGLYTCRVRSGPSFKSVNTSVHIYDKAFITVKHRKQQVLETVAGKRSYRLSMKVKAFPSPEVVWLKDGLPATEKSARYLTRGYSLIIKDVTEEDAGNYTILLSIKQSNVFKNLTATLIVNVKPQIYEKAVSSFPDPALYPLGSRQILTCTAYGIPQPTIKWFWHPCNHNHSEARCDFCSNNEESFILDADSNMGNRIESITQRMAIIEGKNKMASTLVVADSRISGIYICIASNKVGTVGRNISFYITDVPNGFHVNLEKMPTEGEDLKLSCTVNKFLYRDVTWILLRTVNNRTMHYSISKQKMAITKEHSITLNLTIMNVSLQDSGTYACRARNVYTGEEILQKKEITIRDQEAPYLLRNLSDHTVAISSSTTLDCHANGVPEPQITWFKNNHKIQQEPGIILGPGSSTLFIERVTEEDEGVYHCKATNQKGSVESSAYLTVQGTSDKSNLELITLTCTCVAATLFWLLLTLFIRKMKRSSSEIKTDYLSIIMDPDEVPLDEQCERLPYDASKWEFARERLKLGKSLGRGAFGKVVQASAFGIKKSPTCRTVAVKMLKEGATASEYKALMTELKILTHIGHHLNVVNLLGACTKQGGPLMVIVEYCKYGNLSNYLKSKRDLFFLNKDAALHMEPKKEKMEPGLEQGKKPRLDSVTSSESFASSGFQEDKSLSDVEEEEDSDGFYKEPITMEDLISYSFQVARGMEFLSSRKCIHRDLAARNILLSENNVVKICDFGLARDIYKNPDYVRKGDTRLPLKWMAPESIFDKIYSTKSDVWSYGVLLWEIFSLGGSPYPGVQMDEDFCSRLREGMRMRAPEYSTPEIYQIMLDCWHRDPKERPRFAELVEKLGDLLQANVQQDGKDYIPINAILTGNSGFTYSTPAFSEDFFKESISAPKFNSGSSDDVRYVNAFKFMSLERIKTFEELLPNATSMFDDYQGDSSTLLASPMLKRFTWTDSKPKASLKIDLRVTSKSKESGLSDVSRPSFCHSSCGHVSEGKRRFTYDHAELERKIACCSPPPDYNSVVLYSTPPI
The next test addresses Substance-P receptor (Homo sapiens, UniProt P25103). The format is cell membranes, CHO, Membrane. The note with it: cho.
In a further test the target is D(1A) dopamine receptor (Homo sapiens, UniProt P21728). In words: DRUGMATRIX: Dopamine D1 radioligand binding (ligand: [3H] SCH-23390). The format is cell membranes, CHO, Membrane. The note with it: cho; Not Active = under 50% inhibition at 10 µM.
Chain of D(1A) dopamine receptor (P21728 whole entry): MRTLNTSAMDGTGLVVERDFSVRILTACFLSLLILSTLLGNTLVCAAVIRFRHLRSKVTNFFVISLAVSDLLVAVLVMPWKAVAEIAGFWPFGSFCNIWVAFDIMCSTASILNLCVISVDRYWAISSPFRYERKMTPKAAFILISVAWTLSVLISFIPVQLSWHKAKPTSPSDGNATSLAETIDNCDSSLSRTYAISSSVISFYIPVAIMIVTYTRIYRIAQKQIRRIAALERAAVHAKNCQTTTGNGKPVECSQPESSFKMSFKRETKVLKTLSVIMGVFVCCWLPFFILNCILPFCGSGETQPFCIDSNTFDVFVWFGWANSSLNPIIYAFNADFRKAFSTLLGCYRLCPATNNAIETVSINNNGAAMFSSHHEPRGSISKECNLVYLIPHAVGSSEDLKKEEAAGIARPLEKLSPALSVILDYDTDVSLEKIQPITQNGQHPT

Chain of Substance-P receptor (P25103 whole entry): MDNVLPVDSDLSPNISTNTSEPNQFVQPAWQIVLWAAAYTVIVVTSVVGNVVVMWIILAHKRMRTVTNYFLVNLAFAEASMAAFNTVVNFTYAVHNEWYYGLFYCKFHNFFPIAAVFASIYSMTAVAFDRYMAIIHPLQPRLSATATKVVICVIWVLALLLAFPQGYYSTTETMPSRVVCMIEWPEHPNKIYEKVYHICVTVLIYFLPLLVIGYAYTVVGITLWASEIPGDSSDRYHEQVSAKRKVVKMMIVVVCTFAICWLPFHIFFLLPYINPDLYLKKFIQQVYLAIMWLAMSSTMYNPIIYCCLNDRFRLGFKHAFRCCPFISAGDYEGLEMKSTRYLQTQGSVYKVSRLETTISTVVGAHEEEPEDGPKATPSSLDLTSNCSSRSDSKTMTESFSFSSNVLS

The IC50 is the concentration that gives 50% inhibition. Usually Ki stands for a measure of affinity in units of concentration, obtained from inhibition or displacement. On to `CCN(CC)CCCC(C)Nc1c2ccc(Cl)cc2nc2ccc(OC)cc12` (centres undefined) [QUINACRINE], for which the IC50 in test [1] (read-out: IC50) was 3410 nM; in test [2] it was “Not Active”; in test [3], “Not Active”; in test [4] it was “Not Active”; on Substance-P receptor, “Not Active”; on D(1A) dopamine receptor it was “Not Active”. Moreover, the Ki in test [1] (read-out: Ki) was determined as 1890 nM.

As to `C[C@]12C=CC(=O)C=C1CC[C@H]1[C@@H]3C[C@@H](O)[C@](O)(C(=O)CO)[C@@]3(C)C[C@H](O)[C@@]12F` [TRIAMCINOLONE], the IC50 entry (in test [1]; in test [2]; in test [3]; in test [4]; on Substance-P receptor; at D(1A) dopamine receptor) was “Not Active” throughout.

With `CC[C@]1(O)C[C@@H]2CN(CCc3c([nH]c4ccccc34)[C@@](C(=O)OC)(c3cc4c(cc3OC)N(C)[C@H]3[C@@](O)(C(N)=O)[C@H](O)[C@]5(CC)C=CCN6CC[C@]43[C@@H]65)C2)C1` [VINDESINE], the IC50 entry (in test [1]; in test [2]; in test [3]; in test [4]; at Substance-P receptor; at D(1A) dopamine receptor) was “Not Active” each time.

As for `CCN(C(C)=O)c1cccc(-c2ccnc3c(C#N)cnn23)c1` [ZALEPLON], the 50% inhibitory concentration (IC50) result (in test [1]; in test [2]; in test [3]; in test [4]; against Substance-P receptor; on D(1A) dopamine receptor) was “Not Active” in each case.

Consider COBALTOUS CHLORIDE, for which the IC50 entry (in test [1]; in test [2]; in test [3]; in test [4]; at Substance-P receptor; on D(1A) dopamine receptor) was “Not Active” throughout. Besides, the Ki result (in test [1]; in test [2]; in test [3]; in test [4]; at Substance-P receptor; on D(1A) dopamine receptor) was “Not Active” each time.

With COLISTIN, the IC50 entry (in test [1]; in test [2]; in test [3]; in test [4]; against Substance-P receptor; on D(1A) dopamine receptor) was “Not Active” in each case. The Ki entry (in test [1]; in test [2]; in test [3]; in test [4]; on Substance-P receptor; at D(1A) dopamine receptor) was “Not Active” in each case.
